2 compounds from patent US10752626B2, “Iso-citrate dehydrogenase (IDH) inhibitor” (SHANGHAI METON PHARMACEUTICAL CO., LTD, priority 2016, dated 2020) can be followed below.

Series [1] can be described thus: Metabolic stability in mouse plasma. In kind it is in vitro ADME. Here is the method:
Blank male/female mouse plasma was provided by 3D BioOptima (Suzhou, China) and was freshly collected prior to use. The acetonitrile was purchased from Honeywell International Inc. (New Jersey, U.S.).
At each set time point (0, 15, 30, 60, 120 min), small aliquots from the plasma samples was transferred (each of 20 μL) into the mirocentrifuge tubes, then was added into 200 μL IS containing acetonitrile for protein precipitation. […] All incubations were performed in duplicate. In vitro compound stability was calculated by using the following equations: […]
where Ct is the area ratio of the sample to the IS at […] post-incubation, and C0 is the area ratio of the sample to the IS at 0 h pre-incubation.
In this study, the metabolic stability of the compounds in mouse plasma was assessed according to the method disclosed in Test 3 of the Biological evaluation section.

A further series deals with IDH1 R132C (Homo sapiens (Human), UniProt O75874, R132C). The series is described as follows: Improved cell-based assay: D-2-HG in HT1080 cells over-expressing D-2-HG dehydrogenase. The conditions noted are these: 12 h. The source says: The present disclosure also provides a cell based method for assaying IDH inhibition and selectivity of the compounds in human fibrosacoma cell line HT1080 and cholangiocarcinoma cell line HCCC 9810, which harbor endogenous heterozygous IDH1 R132C and R132H mutation respectively and accumulate D-2-HG Tumor derived IDH mutant lost its normal activity of producing α-KG and gained a new activity of producing D-2-HG D-2-HG is a metabolite specifically elevated in IDH mutated tumor samples.
By treating HT1080 and HCCC 9810 cells with an effective IDH inhibitor, the synthesis of D-2-HG is blocked, and D-2-HG concentration is decreased by the oxidation reaction catalyzed by D-2-HG dehydrogenase.
To perform a cell based IDH inhibitor assay, HT1080 and HCCC 9810 cells (or other cell lines harboring different IDH mutations) are cultured in DMEM supplemented with 10% FBS. The cells are treated with compounds of present disclosure at various different concentration. At various time points (between 4-24 hours) after the treatment, cell culture supernatants were removed and cells were washed with PBS for one or two times. Cell metabolites are extracted by adding 80% methanol (pre-chilled under −80° C.) in the cells, extract at 4° C. temperature for 60 min, centrifuged to remove any insoluble component. Metabolites (clear supernatant from the previous step) are lyophilized and reconstituted in pyridine containing 20 mg/ml O-methoxyamineHCl and are incubated at 70° C. for 40 minutes. After cooling down to room temperature, MTBSTFA (N-tert-Butyldimethylsilyl-N-methyltrifluoroacetamide, Sigma Aldrich) is added at a volume ratio of 4:7 (e.g., 20 μL MTBSTFA to 35 μL 20 mg/ml O-methoxyamineHCl solution) and derivation is performed at 70° C. for 30 minutes. The derived metabolites including D-2-HG are analyzed by Agilent 7890A-5750 GC/MS system. […] of the derived metabolite is injected into Agilent 7890A-5750 for D-2-HG concentration analysis. GC oven temperature is programmed from 140° C. to 260° C. at 10° C./min, from 260° C. to 310° C. at 8° C./min and hold at 310° C. for 5 min. The flow rate of carrier gas is 1 ml/min. The mass spectrometer is operated in the electron impact (EI) mode at 70 eV D-2-HG is normalized to endogenous glutamate.
The activity of IDHs in the presence of each compounds at different concentrations can be represented by relative D-2-HG concentration to negative control samples, and the IC50 value, the inhibition and selectivity for each compound can be evaluated.
The present disclosure also provides an improved cell-based assay for IDH inhibition and selectivity of the compounds, which involves stably over-expressing D-2-HG dehydrogenase in HT1080 and HCCC 9810 cells.
According to previous report, over expression of D-2-HG dehydrogenase decreases the half-life of D-2-HG in HT1080 cells (FIGS. 2A and 2B) [“D-2-hydroxyglutarate is essential for maintaining oncogenic property of mutant IDH-containing cancer cells but dispensable for cell growth”, Ma, S., et al., Oncotarget, (2015)], making the cells more sensitive to D-2-HG synthesis blockage by mutant IDH1 inhibitors. It will greatly increase the sensitivity and accurateness of this cell based assay. In the improved cell-based assay, all other steps are performed as disclosed in Test 6.
The D-2-HG inhibition activity of compounds was also assessed in the improved cell-based assay according to the method disclosed in Test 7 of the Biological evaluation section. HT1080 cells over-expressing D-2-HG dehydrogenase were cultured in 35 mm plate and treated with each of Compounds 1-37 at a concentration of 0.5 μM, 1 μM, 2.5 μM and 5 μM for 12 h, respectively, and the D-2-HG concentration was analysed. The inhibition ratio of D-2-HG in HT1080 cell by the exemplary Compounds 16, 21-24 and 31 at different concentrations were shown in Table 10.

Chain of IDH1 R132C (O75874 2-414 R132C): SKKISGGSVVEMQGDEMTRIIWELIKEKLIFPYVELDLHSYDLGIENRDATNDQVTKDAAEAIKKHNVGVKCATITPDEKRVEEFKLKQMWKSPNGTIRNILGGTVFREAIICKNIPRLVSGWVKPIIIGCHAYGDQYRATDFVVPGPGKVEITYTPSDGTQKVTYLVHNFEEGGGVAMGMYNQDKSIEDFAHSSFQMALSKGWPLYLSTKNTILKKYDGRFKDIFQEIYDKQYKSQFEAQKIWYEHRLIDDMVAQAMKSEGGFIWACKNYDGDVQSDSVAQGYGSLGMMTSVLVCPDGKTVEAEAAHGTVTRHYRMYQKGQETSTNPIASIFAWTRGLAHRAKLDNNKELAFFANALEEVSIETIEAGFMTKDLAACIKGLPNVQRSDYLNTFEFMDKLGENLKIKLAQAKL

In the case of `CCN1Cc2c(ccnc2N[C@@H](C)c2ccc(Oc3ccc(C)cc3)cc2)C1=O` [Compound 16, (S)-2-ethyl-4-(1-(4-(p-tolyloxy)phenyl)ethylamino)-2,3-dihydro-1H-pyrrolo [3,4-c]pyridin-1-one], the “period over which compound remains stable in mouse plasma” value in series [1] was “at least 2 hrs”. The K in series [1] (#2) and in series [1] (Mean) was 0.000737 min⁻¹ in each case. Besides, the half-life at 2 μM in series [1] (both sexes, #2) is 15.7 h. Besides, the “% remaining #1” value in series [1] (incubation 0 min) was 100%; in series [1] (incubation 15 min), 99.8%; in series [1] (incubation 30 min), 95.0%; in series [1] (incubation 60 min), 98.4%; in series [1] (incubation 120 min), 105%. Moreover, the “% remaining #2” value came to 100% in series [1] (incubation 0 min); 106% in series [1] (incubation 15 min); 102% in series [1] (incubation 30 min); 98.9% in series [1] (incubation 60 min); 94.1% in series [1] (incubation 120 min). In addition, the “Ln (% remaining) #1” value in series [1] (incubation 0 min) turned out to be 4.61; in series [1] (incubation 15 min), 4.60; in series [1] (incubation 30 min), 4.55; in series [1] (incubation 60 min) it was 4.59; in series [1] (incubation 120 min) it was 4.65. The “Ln (% remaining) #2” value in series [1] (incubation 0 min) came to 4.61; in series [1] (incubation 15 min), 4.66; in series [1] (incubation 30 min), 4.62; in series [1] (incubation 60 min), 4.59; in series [1] (incubation 120 min), 4.54. The “Mean Ln(% remaining)” value in series [1] (incubation 0 min) was found to be 4.61; in series [1] (incubation 15 min), 4.63; in series [1] (incubation 30 min), 4.59; in series [1] (incubation 60 min) it was 4.59; in series [1] (incubation 120 min), 4.60. For the same compound, the average percentage remaining entry in series [1] (within the 2 hrs period) is “above 98.5%”. Besides, the “Inhibition ratio of D-2-HG in HT1080 cell” value at IDH1 R132C (0.5 μM) is given as 51%; at IDH1 R132C (1 μM) it was 60.2%; on IDH1 R132C (2.5 μM), 67%; at IDH1 R132C (5 μM) it was 82.2%.

Take `CCN1Cc2c(ccnc2N[C@@H](C)c2ccc(Oc3ccccc3)c(F)c2)C1=O` [Compound 23, (S)-2-ethyl-4-((1-(3-fluoro-4-phenoxyphenyl)ethyl)amino)-2,3-dihydro-1H-pyrrolo[3,4-c]pyridin-1-one]: the “Inhibition ratio of D-2-HG in HT1080 cell” value at IDH1 R132C (0.5 μM) amounted to 12.5%; at IDH1 R132C (1 μM), 30.7%; on IDH1 R132C (2.5 μM), 68.3%; on IDH1 R132C (5 μM), 76.7%.

One may read the half-life as the time in which the quantity being followed falls by half.
